Data on 25 molecules can be found in patent US7618975B2, “4-arylamino-quinazolines and analogs as activators of caspases and inducers of apoptosis and the use thereof” (Myriad Pharmaceuticals, Inc., priority 2003, dated 2009).

Structures can show the parent of a compound that is named as a salt.

For assay [1], the target named is tyrosine kinase of Epidermal Growth Factor Receptor (Homo sapiens, UniProt P00533). Conditions: Rewcastle et al. 1995; read-out: IC50 EGFR tyrosine kinase; cited from earlier work.
The subject of the next assay is T-47D cells. Nature of the assay: Caspase cascade activation (N-(Ac-DEVD)-N′-ethoxycarbonyl-R110 fluorogenic substrate) in T-47D cells. Conditions: T-47D, ratio of net RFU to control. The assay is classed as cell-based, Human.
Assay [2] has as its system tubulin (Cytoskeleton #ML113, MAP-rich). The experiment in a line: Inhibition of tubulin polymerization (DAPI fluorescence). Format: biochemical. The conditions noted are these: 30 minutes preincubation, 30 minutes at 37° C. The protocol:
Lyophilized tubulin (Cytoskeleton #ML113, 1 mg, MAP-rich) was assayed for the effect of the test compound on tubulin polymerization as measured by change in fluorescence for 4′,6-diamidino-2-phenylindole (DAPI) (Barron, D. M. et al. Analytical Biochem., 2003, 315, 49-56.). 1 μl of serial dilutions of each test compound (from 100×DMSO stock) was added in 96 well plate format and preincubated for 30 minutes with 94 ul of the non-GTP supplemented tubulin supernatant. 5 μl of DAPI/GTP solution was added to initiate polymerization and incubated for 30 minutes at 37° C. Fluorescence was read with excitation 350 nm, emission wavelength 485 nm on a Tecan Spectraflour Plus. Polymerized tubulin (DMSO and with the tubulin stabilizer Taxol® (paclitaxel)) gives a higher DAPI fluorescence as compared to non-polymerized tubulin (vinblastine and colchicine used to determine baseline).

In another assay the target is T1, Topoisomerase I (Homo sapiens, UniProt P11387).
T1 sequence (P11387 1-765): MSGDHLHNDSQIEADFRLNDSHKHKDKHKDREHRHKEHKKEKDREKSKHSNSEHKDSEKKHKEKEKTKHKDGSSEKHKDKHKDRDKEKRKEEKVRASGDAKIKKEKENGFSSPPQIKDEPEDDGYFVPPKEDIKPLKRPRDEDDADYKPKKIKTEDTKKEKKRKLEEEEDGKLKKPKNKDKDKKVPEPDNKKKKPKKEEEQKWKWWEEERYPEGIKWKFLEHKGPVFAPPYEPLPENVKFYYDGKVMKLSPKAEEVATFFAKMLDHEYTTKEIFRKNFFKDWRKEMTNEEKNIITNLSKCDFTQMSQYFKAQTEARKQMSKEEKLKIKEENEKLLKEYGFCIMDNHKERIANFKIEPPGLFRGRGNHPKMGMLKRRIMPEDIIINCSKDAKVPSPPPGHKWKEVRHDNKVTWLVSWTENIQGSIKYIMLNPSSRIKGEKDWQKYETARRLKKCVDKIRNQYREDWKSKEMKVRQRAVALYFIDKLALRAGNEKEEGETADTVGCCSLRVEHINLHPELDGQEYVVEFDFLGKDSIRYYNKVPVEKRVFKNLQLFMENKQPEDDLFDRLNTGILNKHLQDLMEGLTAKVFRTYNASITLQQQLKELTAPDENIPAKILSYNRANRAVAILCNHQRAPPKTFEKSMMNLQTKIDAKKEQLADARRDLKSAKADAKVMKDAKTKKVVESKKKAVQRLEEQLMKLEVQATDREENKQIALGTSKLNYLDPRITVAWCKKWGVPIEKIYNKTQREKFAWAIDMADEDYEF
Nature of the assay: Topoisomerase I activity assay (relaxation of supercoiled DNA, gel). Conditions: FIG. 2.

For a further assay, the target named is Topoisomerase II (Homo sapiens, UniProt P11388). Nature of the assay: Topoisomerase II activity assay (relaxation of supercoiled DNA, gel). Conditions: FIG. 1, Example 1 Compound at 100 μM.
In assay [3] the target is T2, Human Type II Topoisomerase (p170 Form) (Homo sapiens, UniProt P11388).
T2 construct: purchased TopoGEN, Inc., Columbus, Ohio
The experiment in a line: Photo-crosslinking of radiolabeled compound to Topoisomerase II. Format: binding. Conditions: 50 nM, 60 minutes, UV 254 nm; FIG. 3. As to the method:
30 Units (15 ul) Human Type II Topoisomerase (p170 Form) (from TopoGEN, Inc., Columbus, Ohio) was incubated with 50 nM radiolabeled Example 102 compound for 60 minutes at room temperature.
(Radiolabeled Example 102 compound stock is 16.67 uM, 60 Ci/mmol, 1 Ci/ml American Radiolabeled Chemicals, Inc., St. Louis, Mo. Samples were either UV irradiated (+) with a short wavelength UV Source (254 nm) for 10 minutes at a distance of 3.5 cm or not irradiated (−). 8 ul of 5× sample buffer (150 mM Tris, pH 6.8, 50% glycerol, 1% SDS, 50 mM dithiothreitol, 62 mg/ml bromophenol blue) was added to the samples and boiled for 5 minutes. The entire sample was then loaded onto a 6% Tris-Glycine SDS-gel (10 well, 1.5 mm thickness) (Invitrogen, Carlsbad, Calif.). The gel was stained with 1% Coomassie Brilliant Blue in 40% methanol, 7.5% acetic acid for 2 hours then de-stained in several changes of de-stainer (40% methanol, 7.5% acetic acid). The gel was then incubated in Amplify (Amersham, Piscataway, N.J.) for 30 minutes at room temperature and then dried down on Whatman filter paper at 80° C. for 2 hours on a gel dryer. The dried gel was put on Hyperfilm (Amersham) in a film cassette and placed at −80° C. for 5-7 days.

T2 sequence (P11388 whole entry): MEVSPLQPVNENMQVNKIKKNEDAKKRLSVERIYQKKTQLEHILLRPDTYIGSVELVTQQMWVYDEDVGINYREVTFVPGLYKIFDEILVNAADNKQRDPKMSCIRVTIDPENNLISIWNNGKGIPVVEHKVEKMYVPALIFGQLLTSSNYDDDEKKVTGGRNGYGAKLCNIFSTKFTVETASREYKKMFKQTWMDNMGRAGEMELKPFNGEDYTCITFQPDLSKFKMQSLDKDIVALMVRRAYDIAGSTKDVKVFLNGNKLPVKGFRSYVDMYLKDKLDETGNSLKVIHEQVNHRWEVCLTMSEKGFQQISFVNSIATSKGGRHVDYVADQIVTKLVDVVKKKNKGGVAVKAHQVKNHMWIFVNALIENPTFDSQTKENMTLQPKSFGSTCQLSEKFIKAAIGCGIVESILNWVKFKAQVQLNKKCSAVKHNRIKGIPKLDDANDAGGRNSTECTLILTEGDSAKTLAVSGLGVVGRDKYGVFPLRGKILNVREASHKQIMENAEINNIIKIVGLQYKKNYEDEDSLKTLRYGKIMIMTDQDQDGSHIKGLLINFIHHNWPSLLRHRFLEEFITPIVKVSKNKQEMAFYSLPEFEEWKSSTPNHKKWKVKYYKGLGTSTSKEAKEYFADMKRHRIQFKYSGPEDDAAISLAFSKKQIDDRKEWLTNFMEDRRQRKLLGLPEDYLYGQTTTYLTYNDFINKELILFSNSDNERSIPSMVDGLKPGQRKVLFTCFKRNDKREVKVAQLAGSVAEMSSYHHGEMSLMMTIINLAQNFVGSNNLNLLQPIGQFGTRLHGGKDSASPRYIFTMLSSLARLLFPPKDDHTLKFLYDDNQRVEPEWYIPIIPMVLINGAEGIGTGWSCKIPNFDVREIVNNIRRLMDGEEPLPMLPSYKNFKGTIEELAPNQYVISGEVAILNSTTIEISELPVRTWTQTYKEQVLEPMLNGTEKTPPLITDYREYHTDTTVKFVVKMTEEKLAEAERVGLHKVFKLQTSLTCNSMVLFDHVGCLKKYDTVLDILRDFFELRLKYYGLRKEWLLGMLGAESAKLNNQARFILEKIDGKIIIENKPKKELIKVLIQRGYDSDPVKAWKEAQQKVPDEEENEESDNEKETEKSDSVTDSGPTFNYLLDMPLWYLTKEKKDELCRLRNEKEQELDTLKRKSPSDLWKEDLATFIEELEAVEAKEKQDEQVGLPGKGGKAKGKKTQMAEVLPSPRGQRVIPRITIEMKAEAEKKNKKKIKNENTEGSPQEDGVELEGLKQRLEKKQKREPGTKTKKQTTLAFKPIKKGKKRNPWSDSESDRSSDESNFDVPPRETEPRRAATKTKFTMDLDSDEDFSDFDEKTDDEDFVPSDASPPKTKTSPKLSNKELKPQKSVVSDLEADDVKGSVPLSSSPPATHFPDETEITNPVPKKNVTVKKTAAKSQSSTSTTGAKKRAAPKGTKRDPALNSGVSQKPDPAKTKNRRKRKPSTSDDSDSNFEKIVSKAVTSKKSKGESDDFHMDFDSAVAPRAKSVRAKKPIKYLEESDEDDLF
Sequence of Topoisomerase II (P11388 whole entry): as above
Sequence of tyrosine kinase of Epidermal Growth Factor Receptor (P00533 25-1210): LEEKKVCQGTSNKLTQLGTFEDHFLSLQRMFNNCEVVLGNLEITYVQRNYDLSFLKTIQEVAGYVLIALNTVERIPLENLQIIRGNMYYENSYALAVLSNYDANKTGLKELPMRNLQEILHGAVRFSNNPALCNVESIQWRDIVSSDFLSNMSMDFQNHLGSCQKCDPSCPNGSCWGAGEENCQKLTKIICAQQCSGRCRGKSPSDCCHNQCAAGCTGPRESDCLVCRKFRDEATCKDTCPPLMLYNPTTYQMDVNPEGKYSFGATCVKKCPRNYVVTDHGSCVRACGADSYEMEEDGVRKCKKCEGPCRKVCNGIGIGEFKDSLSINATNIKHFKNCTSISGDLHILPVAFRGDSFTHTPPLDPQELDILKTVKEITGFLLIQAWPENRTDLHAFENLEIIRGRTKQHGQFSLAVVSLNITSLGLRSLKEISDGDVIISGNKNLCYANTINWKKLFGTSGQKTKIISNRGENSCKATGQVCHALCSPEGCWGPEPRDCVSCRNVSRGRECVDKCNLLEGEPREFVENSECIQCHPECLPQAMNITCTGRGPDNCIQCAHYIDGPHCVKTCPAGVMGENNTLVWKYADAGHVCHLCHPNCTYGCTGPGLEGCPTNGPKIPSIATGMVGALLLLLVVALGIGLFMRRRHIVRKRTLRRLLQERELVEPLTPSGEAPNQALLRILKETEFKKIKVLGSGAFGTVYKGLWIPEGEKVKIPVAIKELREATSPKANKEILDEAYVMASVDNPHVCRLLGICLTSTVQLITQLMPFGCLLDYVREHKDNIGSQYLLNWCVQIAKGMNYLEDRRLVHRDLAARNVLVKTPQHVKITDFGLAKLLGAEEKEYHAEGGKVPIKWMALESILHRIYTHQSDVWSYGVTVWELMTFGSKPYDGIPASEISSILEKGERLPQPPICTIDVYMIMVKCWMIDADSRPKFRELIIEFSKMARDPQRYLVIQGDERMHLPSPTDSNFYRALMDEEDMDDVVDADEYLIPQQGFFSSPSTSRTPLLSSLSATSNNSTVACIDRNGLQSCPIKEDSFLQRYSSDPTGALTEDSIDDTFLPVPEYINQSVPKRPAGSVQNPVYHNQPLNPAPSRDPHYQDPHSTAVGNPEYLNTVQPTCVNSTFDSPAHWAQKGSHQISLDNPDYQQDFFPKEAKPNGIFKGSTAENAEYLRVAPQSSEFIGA

The term IC50 denotes the point on the concentration scale where inhibition reaches its midpoint. As for `CN(c1ccccc1)c1ncnc2ccccc12` [R1═Me, R2═R3═R4═H], the half-inhibitory concentration (IC50) in assay [1] is above 100 µM.

On to `Cc1ccc(N(C)c2ncnc3ccccc23)cc1` [Example 35, (4-Methyl-phenyl)-methyl-quinazolin-4-yl-amine], for which the “Caspase activity Ratio T-47D (24 hr)” value in the assay with T-47D cells is recorded as 7.2. Moreover, in assay [2], the IC50 was 4 µM.

As for `COc1ccc(N(C)c2nccc3ccccc23)cc1` [Example 65, (Isoquinolin-1-yl)-(4-methoxy-phenyl)-methyl-amine], in the assay with T-47D cells, the “Caspase activity Ratio T-47D (48 hr)” value was found to be 13.7. In addition, it took 10 µM to reach half-maximal inhibition in assay [2] (IC50).

In the case of `COc1cccc(N(C)c2nc(Cl)nc3ccccc23)c1` [Example 43, (2-Chloro-quinazolin-4-yl)-(3-methoxy-phenyl)-methyl-amine], the “Caspase activity Ratio T-47D (48 hr)” value in the assay on T-47D cells amounted to 14.7. This molecule also returned an IC50 in assay [2] of 2 µM.

Take `COc1ccc(OC)c(Nc2nc(Cl)nc3ccccc23)c1` [Example 31, (2-Chloro-quinazolin-4-yl)-(2,5-dimethoxy-phenyl)-amine]: in the assay with T-47D cells, the “Caspase activity Ratio T-47D (24 hr)” value amounted to 8.0 and the “Caspase activity Ratio T-47D (48 hr)” value turned out to be 14.7. In assay [2], this molecule registered an IC50 of 10 µM.

For the molecule `Cc1ccc(N(C)c2nc(Cl)nc3ccccc23)cc1` [Example 2, (2-Chloro-quinazolin-4-yl)-(4-methyl-phenyl)-methyl-amine], in the assay on T-47D cells, the “Caspase activity Ratio T-47D (24 hr)” value is recorded as 6.7. In assay [2], this molecule had an IC50 of 3 µM.

`COc1ccc(N(C)c2nc(NC/C=C(\C)CCC=C(C)C)nc3ccccc23)cc1` [Example 13, N^2-(3,7-Dimethyl-octa-2,6-dienyl)-N^4-(4-methoxy-phenyl)-N^4-methyl-quinazoline-2,4-diamine]: the “Caspase activity Ratio T-47D (24 hr)” value in the assay with T-47D cells came out at 8.9. The molecule further showed an IC50 in assay [2] of 6 µM.

For the molecule `COc1ccc(N(C)c2nc(Cl)nc3ccccc23)c(OC)c1` [Example 41, (2-Chloro-quinazolin-4-yl)-(2,4-dimethoxy-phenyl)-methyl-amine], the “Caspase activity Ratio T-47D (48 hr)” value with T-47D cells came to 12.4. In assay [2], this molecule had an IC50 below 1 µM.

For the molecule `COc1ccc(Nc2nc(Cl)nc3ccccc23)cc1` [Example 7, (2-Chloro-quinazolin-4-yl)-(4-methoxy-phenyl)-amine], in the assay with T-47D cells, the “Caspase activity Ratio T-47D (24 hr)” value came out at 1.2 and the “Caspase activity Ratio T-47D (48 hr)” value stood at 1.0. Further, the IC50 in assay [2] was above 50 µM.

Take `COc1cc([C@@H]2c3cc4c(cc3[C@@H](O[C@@H]3O[C@@H]5CO[C@@H](C)O[C@H]5[C@H](O)[C@H]3O)[C@H]3COC(=O)[C@H]23)OCO4)cc(OC)c1O` [VP-16, etoposide, reference compound]: the “Effect on topoisomerase I-dependent relaxation of supercoiled DNA” value on Topoisomerase I was “no apparent effect”.

As for `COc1ccc(N(C)c2nc(Cl)nc3ccccc23)cc1` [Example 1], the “Caspase activity Ratio T-47D (24 hr)” value in the assay with T-47D cells was determined as 8.7. The molecule further displayed an IC50 in assay [2] below 0.5 µM. Besides, the “Effect on topoisomerase I-dependent relaxation of supercoiled DNA” value at Topoisomerase I is “no apparent effect”. Moreover, the “Inhibition of topoisomerase II-dependent relaxation of supercoiled DNA” value on Topoisomerase II is on record as “inhibition of DNA relaxation is substantial”.

“Radiolabeled (4-Azido-phenyl)-(2-methyl-quinazolin-4-yl)-methyl-amine [Radiolabeled Example 102 compound]”: in assay [3], the “Binding to Topoisomerase II (UV crosslinking)” value was “binds sufficiently well to Topoisomerase II to crosslink to the enzyme when photoactivated”.

For `COc1ccc(N(C)c2nc(C)nc3ccccc23)cc1` [Example 72, (4-Methoxy-phenyl)-methyl-(2-methyl-quinazolin-4-yl)-amine hydrochloride], in the assay with T-47D cells, the “Caspase activity Ratio T-47D (24 hr)” value stood at 9.0 and the “Caspase activity Ratio T-47D (48 hr)” value is on record as 7.4. The molecule also showed an IC50 in assay [2] below 1 µM.

As to `COc1ccc(N(C)c2nc(Cl)nc3cc(OC)c(OC)cc23)cc1` [Example 20, (2-Chloro-6,7-dimethoxyquinazolin-4-yl)-(4-methoxy-phenyl)-methyl-amine], the “Caspase activity Ratio T-47D (24 hr)” value with T-47D cells was determined as 13.1. Moreover, the IC50 in assay [2] is 3 µM.

On to `COc1ccccc1N(C)c1nc(Cl)nc2ccccc12` [Example 44, (2-Chloro-quinazolin-4-yl)-(2-methoxy-phenyl)-methyl-amine], for which, in the assay on T-47D cells, the “Caspase activity Ratio T-47D (48 hr)” value is listed as 14.3. Further, the IC50 in assay [2] came to 10 µM.

Take `COc1ccc(N(C)c2nc(Cl)nc3ccccc23)cn1` [Example 36, (2-Chloro-quinazolin-4-yl)-(6-methoxy-pyridin-3-yl)-methyl-amine]: the “Caspase activity Ratio T-47D (24 hr)” value with T-47D cells is listed as 6.7. The IC50 in assay [2] was below 1 µM.

Consider `COc1ccc(N(C)c2ncnc3c2CCCC3)cc1` [Example 25], for which the “Caspase activity Ratio T-47D (48 hr)” value in the assay with T-47D cells came out at 5.8. For the same molecule, in assay [2], the IC50 stood at 2 µM.

With `COc1ccc(N(C)c2nc(N)nc3ccccc23)cc1` [Example 12, N^4-(4-Methoxy-phenyl)-N^4-methyl-quinazoline-2,4-diamine], in the assay with T-47D cells, the “Caspase activity Ratio T-47D (24 hr)” value is 5.3 and the “Caspase activity Ratio T-47D (48 hr)” value was determined as 12.8. In addition, in assay [2], the IC50 worked out at 2 µM.

On to `CN(c1ccccc1)c1nc(Cl)nc2ccccc12` [Example 6, (2-Chloro-quinazolin-4-yl)-phenyl-methyl-amine], for which the “Caspase activity Ratio T-47D (24 hr)” value in the assay on T-47D cells is recorded as 6.7. The same molecule gave an IC50 in assay [2] of 4 µM.

With `COc1ccc(OC)c(N(C)c2nc(Cl)nc3ccccc23)c1` [Example 42, (2-Chloro-quinazolin-4-yl)-(2,5-dimethoxy-phenyl)-methyl-amine], in the assay on T-47D cells, the “Caspase activity Ratio T-47D (24 hr)” value was 8.6 and the “Caspase activity Ratio T-47D (48 hr)” value is listed as 14.6. Moreover, the half-inhibitory concentration (IC50) in assay [2] came out at 5 µM.

Consider `CC(C)=CCC/C(C)=C/CNc1nc(N(C)c2ccc(C)cc2)c2ccccc2n1` [Example 16, N^2-(3,7-Dimethyl-octa-2,6-dienyl)-N^4-(4-methyl-phenyl)-N^4-methyl-quinazoline-2,4-diamine], for which, in the assay on T-47D cells, the “Caspase activity Ratio T-47D (24 hr)” value amounted to 7.6.

Turning to `CN(c1ccc(Cl)cc1)c1nc(Cl)nc2ccccc12` [Example 3, (2-Chloro-quinazolin-4-yl)-(4-chloro-phenyl)-methyl-amine], the “Caspase activity Ratio T-47D (24 hr)” value with T-47D cells came out at 8.1.

`COc1ccc(N(C)c2nc(Cl)nc3c(Cl)cccc23)cc1` [Example 89, (2,8-Dichloro-quinazolin-4-yl)-(4-methoxy-phenyl)-methyl-amine]: the “Caspase activity Ratio T-47D (48 hr)” value in the assay on T-47D cells came out at 7.8.

For the molecule `COc1ccc(N(C)c2nc(CN(C)C)nc3ccccc23)cc1` [Example 77, (2-Dimethylaminomethyl-quinazolin-4-yl)-(4-methoxy-phenyl)-methyl-amine], in the assay with T-47D cells, the “Caspase activity Ratio T-47D (24 hr)” value was 5.7 and the “Caspase activity Ratio T-47D (48 hr)” value turned out to be 12.3.

Take `CN(c1ccc(Cl)cc1)c1nc(N(C)c2ccc(Cl)cc2)c2ccccc2n1` [Example 19, N^2,N^4-Bis(4-chloro-phenyl)-N^2,N^4-dimethyl-quinazoline-2,4-diamine]: in the assay with T-47D cells, the “Caspase activity Ratio T-47D (24 hr)” value came out at 1.0 and the “Caspase activity Ratio T-47D (48 hr)” value amounted to 1.0.
